This passage reports IC50 results from patent EP0512570B1, “Urea derivatives, processes for the preparation thereof and pharmaceutical composition comprising the same” (FUJISAWA PHARMACEUTICAL CO., LTD., priority 1991, dated 1992).

pIC50: −log10 of the molar value.

The assay deals with Acyl-CoA : cholesterol acyltransferase (ACAT). The assay is described as follows: Acyl-CoA : cholesterol acyltransferase (ACAT) inhibitory activity. It counts as biochemical, Japanese white rabbits. The following applies: enzyme from mucosal microsome fraction of small intestine of rabbits fed 2% cholesterol diet; [14C]oleoyl-CoA and endogenous cholesterol, 37°C for 5 minutes. The method, then:
Acyl-CoA : cholesterol acyltransferase (ACAT) inhibitory activity
ACAT activity was measured by the method of Heider et al. described in Journal of Lipid Research, Vol. 24, page 1127 (1983). The enzyme ACAT was prepared from the mucosal microsome fraction of the small intestine of male, 18-week old Japanese white rabbits which had been fed diet containing 2% cholesterol for 8 weeks. The inhibitory activity of compounds were calculated by measuring the amount of the labeled cholesterol ester produced from [¹⁴C]oleoyl-CoA and endogenous cholesterol as follows. [¹⁴C]oleoyl-CoA and microsome were incubated with test compounds at 37°C for 5 minutes. The reaction was stopped by the addition of chloroform-methanol (2:1, V/V). Cholesterol ester fraction in the chloroform-methanol extracts was isolated by thin-layer chromatography and was counted their label.
The compound `CCCCCCCN(Cc1cc2ccccc2o1)C(=O)Nc1c(F)cc(F)cc1F` [Example 3 - (9), N-(Benzofuran-2-ylmethyl)-N-heptyl-N'-(2,4,6-trifluorophenyl)urea] showed a pIC50 of 7.14.
Regarding `O=C(Nc1c(F)cc(F)cc1F)N(Cc1oc2ccccc2c1-c1ccccc1)C1CCCCCC1` [Example 3 - (10), N-Cycloheptyl-N-(3-phenylbenzofuran-2-ylmethyl)-N'-(2,4,6-trifluorophenyl)urea], the pIC50 is 7.62.
Consider `CCCCCCCN(Cc1oc2ccc(CC)cc2c1-c1ccc(Cl)cc1)C(=O)Nc1c(F)cc(F)cc1F` [Example 3 - (35), N-[3-(4-Chlorophenyl)-5-ethylbenzofuran-2-ylmethyl]-N-heptyl-N'-(2,4,6-trifluorophenyl)urea], for which the pIC50 is 8.18.
For `Cc1ccc2oc(CN(Cc3ccc(F)cc3)C(=O)Nc3c(F)cc(F)cc3F)c(-c3ccc(Cl)cc3)c2c1` [Example 5 - (7), N-[3-(4-Chlorophenyl)-5-methylbenzofuran-2-ylmethyl]-N-(4-fluorobenzyl)-N'-(2,4,6-trifluorophenyl)urea] the value was 8.06; for `Cc1ccc2oc(CN(Cc3ccco3)C(=O)Nc3c(F)cc(F)cc3F)c(-c3ccc(Br)cc3)c2c1` [Example 5 - (15), N-[3-(4-Bromophenyl)-5-methylbenzofuran-2-ylmethyl]-N-furfuryl-N'-(2,4,6-trifluorophenyl)urea], 8.05; for `Cc1ccc2oc(CN(Cc3ccccc3)C(=O)Nc3c(F)cc(F)cc3F)c(-c3ccc(Cl)cc3)c2c1` [Example 6 - (2), N-Benzyl-N-[3-(4-chlorophenyl)-5-methylbenzofuran-2-ylmethyl]-N'-(2,4,6-trifluorophenyl)urea], 8.13.
Next, `Cc1ccc(-c2c(CN(Cc3ccccc3)C(=O)Nc3c(F)cc(F)cc3F)oc3ccc(Cl)cc23)cc1` [Example 6 - (6), N-Benzyl-N-[5-chloro-3-(4-methylphenyl)benzofuran-2-ylmethyl]-N'-(2,4,6-trifluorophenyl)urea]: 8.08.
For `Cc1ccc(CN(Cc2oc3ccc(C)cc3c2-c2ccc(Cl)cc2)C(=O)Nc2c(F)cc(F)cc2F)cc1` [Example 6 - (7), N-[3-(4-Chlorophenyl)-5-methylbenzofuran-2-ylmethyl]-N-(4-methylbenzyl)-N'-(2,4,6-trifluorophenyl)urea] the value was 8.36.

As usually defined, the pIC50 is the IC50 on a negative log10 scale, so that one unit is a factor of ten.
